Measured values published in patent publication US11111230B2 (ADLAI NORTYE BIOPHARMA CO., LTD., priority 2017, dated 2021).

Assays:
[1] = test system: Hela cells; test: Activity in Hela cells (interferon-γ induced, kynurenine readout with Ehrlich's reagent); assay type: cell-based; conditions: Homo sapiens, interferon-γ 50 ng/mL, tryptophan 16 mg/L, 48 hours, absorption at 480 nm
Method: Example 1: Study on the Activity of the Compound of the Present Invention in Hela Cells
Hela cells were seeded in 96-well culture plates and incubated at 37° C., 100% relative humidity, 5% CO2 incubator for 24 hours. The compound was dissolved in DMSO and diluted to an appropriate concentration, and then the compound was diluted 100-fold with DMEM medium containing interferon-γ and 10% fetal bovine serum to the final concentration of effect. Aspirate the old medium from the 96-well plate and add 200 μL of each medium containing compound and interferon-γ from the previous step. The content of tryptophan in the medium is 16 mg/L, and the concentration of interferon-γ is 50 ng/mL. The cells were placed in a 37° C., 100% relative humidity, and 5% CO2 incubator for 48 hours, then 140 μL of the cell culture supernatant was mixed with 15 μL of trichloroacetic acid, and placed at 52° C. for 30 min, then centrifuged at room temperature to take the centrifugal supernatant. Mix with an equal volume of Ehrlich's reagent, measure the light absorption at 480 nm, and calculate the IC50 values.

[2] = molecular target: T1, human IDO1 protein (Homo sapiens, UniProt P14902); test: Activity in HEK293 cells highly expressing human IDO1 protein; assay type: cell-based; conditions: HEK293-IDO cells, tryptophan 16 mg/L, 24 hours, absorption at 480 nm; read-out: IC50 (HEK293 cell)
T1 construct: expressed in transfected cells; host or cells: HEK293
T1 sequence (P14902 whole entry): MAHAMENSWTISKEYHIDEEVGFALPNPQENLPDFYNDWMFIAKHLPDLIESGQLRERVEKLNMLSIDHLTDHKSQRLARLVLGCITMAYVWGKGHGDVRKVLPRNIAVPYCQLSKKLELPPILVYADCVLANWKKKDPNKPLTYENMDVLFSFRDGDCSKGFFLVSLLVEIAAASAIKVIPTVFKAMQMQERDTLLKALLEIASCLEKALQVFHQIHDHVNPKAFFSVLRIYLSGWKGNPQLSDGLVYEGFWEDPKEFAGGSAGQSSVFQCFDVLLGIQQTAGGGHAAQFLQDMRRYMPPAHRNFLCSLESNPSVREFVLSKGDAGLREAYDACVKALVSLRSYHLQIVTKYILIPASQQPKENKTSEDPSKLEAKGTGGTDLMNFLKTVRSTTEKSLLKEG
Method: Example 2: Study on the Activity of the Present Invention in HEK293 Cells Highly Expressing Human IDO1 Protein
HEK293-IDO cells with high expression of human IDO1 protein were prepared by electrotransformation, and the cells were seeded in 96-well culture plates, and cultured at 37° C., 100% relative humidity, and 5% CO2 incubator for 24 hours. Dissolve in DMSO and dilute to the appropriate concentration, then use DMEM medium containing 10% fetal bovine serum to dilute the candidate 100-fold to the final concentration. Aspirate the old medium from the 96-well plate and add 200 μL of the medium contained in the previous step to each well. The content of tryptophan in the medium is 16 mg/L. The cells were placed in a 37° C., 100% relative humidity, and 5% CO2 incubator for 24 hours. 140 μL of the cell culture supernatant was mixed with 15 μL of trichloroacetic acid and placed at 52° C. for 30 min. Mix with an equal volume of Ehrlich's reagent, measure the light absorption at 480 nm, and calculate the IC50 values.

| Structure (SMILES) | IC50 [1] [nM] | IC50 [2] [nM] |
| --- | --- | --- |
| COCCOc1ccc(NC(=O)[C@@H]2C[C@]23CC[C@H](c2ccnc4cc(C)c(F)cc42)CC3)cc1 (single isomer, unassigned) [Compound 99] | > 100 | > 100 |
| COc1cc2nccc([C@H]3CC[C@@]4(CC3)C[C@H]4C(=O)Nc3ccc(Cl)cc3)c2cc1F (single isomer, unassigned) [Compound 109] | > 100 | > 100 |
| O=C(Nc1ccc(Cl)cc1)C1CC12CCC(c1ccnc3cc4c(cc13)OCO4)CC2 (centres unmarked) [Compound 110, 6-([1,3]dioxolo[4,5-g]quinolin-8-yl)-N-(4-chlorophenyl)spiro[2.5]octane-1-carboxamide] | 10 to 100 | > 100 |
| Cc1cc2nccc(C3CCC4(CC3)CC4C(=O)Nc3ccnc(Cl)c3)c2cc1F (centres unmarked) [Compound 97] | > 100 | > 100 |
| Cc1cc2nccc(C3CCC4(CC3)CC4C(=O)Nc3ccc(Cl)cc3)c2cc1F (centres unmarked) [Compound 9, N-(4-chlorophenyl)-6-(6-fluoro-7-methylquinolin-4-yl)spiro[2.5]octane-1-carboxamide] | 0.1 to 10 | 0.1 to 10 |
| O=C(NCc1ccc(Cl)cc1)C1CC12CCC(c1ccnc3ccc(F)cc13)CC2 (centres unmarked) [Compound 3, N-(4-chlorobenzyl)-6-(6-fluoroquinolin-4-yl)spiro[2.5]octane-1-carboxamide] | > 100 | > 100 |
| N#Cc1cc2nccc(C3CCC4(CC3)CC4C(=O)Nc3ccc(Cl)cc3)c2cc1F (centres unmarked) [Compound 102, N-(4-chlorophenyl)-6-(7-cyano-6-fluoroquinolin-4-yl)spiro[2.5]octane-1-carboxamide] | 0.1 to 10 | 10 to 100 |
| N#Cc1ccc(NC(=O)C2CC23CCC(c2ccnc4ccc(F)cc24)CC3)cc1 (centres unmarked) [Compound 6, N-(4-cyanophenyl)-6-(6-fluoroquinolin-4-yl)spiro[2.5]octane-1-carboxamide] | 10 to 100 | 10 to 100 |
| COCCOc1ccc(NC(=O)C2CC23CCC(c2ccnc4cc(C)c(F)cc24)CC3)cc1 (centres unmarked) [Compound 94, 6-(6-fluoro-7-methylquinolin-4-yl)-N-(4-(2-methoxyethoxy)phenyl)spiro[2.5]octane-1-carboxamide] | 0.1 to 10 | 10 to 100 |
| COCCOc1ccc(NC(=O)C2CC23CCC(c2ccnc4cc(OC)c(OC)cc24)CC3)cc1 (centres unmarked) [Compound 113, 6-(6,7-dimethoxyquinolin-4-yl)-N-(4-(2-methoxyethoxy)phenyl)spiro[2.5]octane-1-carboxamide] | 0.1 to 10 | 10 to 100 |
| COc1cc2nccc(C3CCC4(CC3)CC4C(=O)Nc3ccc(Cl)cc3)c2cc1OC (centres unmarked) [Compound 101] | 0.1 to 10 | 10 to 100 |
| O=C(Nc1ccc(Br)cc1)C1CC12CCC(c1ccnc3ccc(F)cc13)CC2 (centres unmarked) [Compound 11, N-(4-bromophenyl)-6-(6-fluoroquinolin-4-yl)spiro[2.5]octane-1-carboxamide] | 0.1 to 10 | 10 to 100 |
| COc1cc2nccc(C3CCC4(CC3)CC4C(=O)Nc3ccc(Cl)cc3)c2cc1F (centres unmarked) [Compound 105, N-(4-chlorophenyl)-6-(6-fluoro-7-methoxyquinolin-4-yl)spiro[2.5]octane-1-carboxamide] | 10 to 100 | 0.1 to 10 |
| N#CC1(C(=O)Nc2ccc(Cl)cc2)CC12CCC(c1ccnc3ccc(F)cc13)CC2 (centres unmarked) [Compound 107, N-(4-chlorophenyl)-1-cyano-6-(6-fluoroquinolin-4-yl)spiro[2.5]octane-1-carboxamide] | > 100 | > 100 |
| Cc1cc2nccc(C3CCC4(CC3)CC4C(=O)Nc3ccc(OCCO)cc3)c2cc1F (centres unmarked) [Compound 112, 6-(6-fluoro-7-methylquinolin-4-yl)-N-(4-(2-hydroxyethoxy)phenyl)spiro[2.5]octane-1-carboxamide] | 10 to 100 | > 100 |
| Cc1cc2nccc([C@H]3CC[C@@]4(CC3)C[C@@H]4C(=O)Nc3ccc(Cl)cc3)c2cc1F (single isomer, unassigned) [Compound 92] | 0.1 to 10 | 0.1 to 10 |
| O=C(Nc1ccc(Cl)cc1)C1CC12CCC(c1ccnc3cc4c(cc13)OCCO4)CC2 (centres unmarked) [Compound 103, N-(4-chlorophenyl)-6-(2,3-dihydro-[1,4]dioxino[2,3-g]quinolin-9-yl)spiro[2.5]octane-1-carborboxamide] | > 100 | > 100 |
| COCCOc1ccc(NC(=O)[C@H]2C[C@]23CC[C@H](c2ccnc4cc(C)c(F)cc42)CC3)cc1 (single isomer, unassigned) [Compound 98] | 0.1 to 10 | 0.1 to 10 |
| O=C(Nc1ccc(Cl)cc1)[C@@H]1CC12CCC(c1ccnc3ccc(F)cc13)CC2 (single isomer, unassigned) [Compound 10b] | > 100 | > 100 |
